In brackets after ≈: the same amount, converted by molar mass.
Tests used:
[1] = test system: MIA-induced osteoarthritic rats; assay: Osteoarthritic pain model in rats (MIA), hind limb grip force; assay type: in vivo, rat; details: grip force; for ED50: Rattus norvegicus, po, MIA-induced osteoarthritic rats, p.o., acute dosing, read-out: Acute ED50 (μmol/kg; 95% Cl); for % Efficacy at Reduced Dose, Chronic (BID, 12 days) / % Efficacy at Reduced Dose, Acute: relative to naïve group; for % Efficacy at Reduced Dose, Acute: 1 hour after acute dosing; for analgesic effects following repeated dosing vs acute dosing: BID 12 days, reduced dose
Procedure: Unilateral knee joint osteoarthritis was induced in the rats by a single intraarticular (i.a.) injection of sodium monoiodoacetate (MIA) (Sigma, St. Louis, Mo.) (3 mg in 0.05 mL sterile isotonic saline) into the joint cavity using a 26 G needle under light (2-4%) halothane (Halocarbon Laboratories, River Edge, N.J.) anesthesia [Bove S E, Calcaterra S L, Brooker R M, Huber C M, Guzman R E, Juneau P L, et al. Weight bearing as a measure of disease progression and efficacy of anti-inflammatory compounds in a model of monosodium iodoacetate-induced osteoarthritis. Osteoarthritis Cartilage 2003; 11:821-30]. Following injection, the animals were allowed to recover from the effects of anesthesia (usually 5-10 min) before returning them to their home cages.
MIA-induced nociception can be assessed by measuring differences in weight bearing (WBD) or decrease in grip force (GF) several days to weeks following MIA injection [Bove S E, Calcaterra S L, Brooker R M, Huber C M, Guzman R E, Juneau P L, et al. Weight bearing as a measure of disease progression and efficacy of anti-inflammatory compounds in a model of monosodium iodoacetate-induced osteoarthritis. Osteoarthritis Cartilage 2003; 11:821-30; Fernihough J, Gentry C, Malcangio M, Fox A, Rediske J, Pellas T, et al. Pain related behaviour in two models of osteoarthritis in the rat knee. Pain 2004; 112:83-93].
In addition to weight-bearing differences, grip strength was also assessed in osteoarthritic rats approximately 21 days after MIA injection. Measurements of peak hind limb grip force were conducted by recording the maximum compressive force exerted on the hind limb strain gauge setup, in a commercially available grip force measurement system (Columbus Instruments, Columbus, Ohio). During testing, each rat was gently restrained by grasping around its rib cage and then allowed to grasp the wire mesh frame (10-12 cm^2) attached to the strain gauge. The experimenter then moved the animal in a rostral-to-caudal direction until the grip was broken. Each rat was sequentially tested twice at an approximately 2 min interval to obtain a raw mean grip force […]. These raw mean grip force data were in turn converted to a maximum hind limb compressive force (CFmax) (gram force)/kg body weight for each animal. A group of age-matched naïve animals was added to each experiment and the data obtained from the different dose groups for the compound being tested were compared to the naïve group.
Compound A was dissolved in 100% polyethylene glycol (PEG 400) for oral administration in a 2 mL/kg injection volume. Compounds B, C, and D were dissolved in 10% ethanol, 20% Tween 80 and 70% polyethylene glycol-400 for oral administration in a 2 mL/kg injection volume. All compounds were dosed orally (p.o.) 60 minutes before behavioral testing.
(§1) In the osteoarthritic pain model, animals were dosed twice-daily for 12 days using a dose that was non-efficacious following a single administration (e.g. 3 μmol/kg p.o. for Compound A). The animals were tested 1 hour after acute dosing (p.o.) and on day 12, 1 hour after oral dosing with either vehicle or the test compound.
The analgesic responses were shown as % effect relative to the healthy, untreated rats (naïve group).

[2] = Plasma levels in osteoarthritic rats after acute and repeated dosing; assay type: in vivo, rat; details: for Plasma Levels, Chronic: 1 hour after last dose on 12 days of BID dosing; for EC50: Rattus norvegicus, osteoarthritic rats, acute dosing
Procedure: as §1

Plasma Levels, Chronic ([2]; 12 μmol/kg) [at 12 μmol/kg ng/mL]	EC50 [2] [µg/mL]	Plasma Levels, Chronic ([2]; 5 μmol/kg) [at 5 μmol/kg ng/mL]	Plasma Levels, Chronic ([2]; 15 μmol/kg) [at 15 μmol/kg ng/mL]	Plasma Levels, Chronic ([2]; 10 μmol/kg) [at 10 μmol/kg ng/mL]	SMILES	ED50 [1] [µmol/kg]	% Efficacy at Reduced Dose, Chronic (BID, 12 days) ([1]; 12 μmol/kg p.o. BID 12 days) [%]	% Efficacy at Reduced Dose, Acute ([1]; 12 μmol/kg p.o.) [%]	analgesic effects following repeated dosing vs acute dosing [1]	% Efficacy at Reduced Dose, Chronic (BID, 12 days) ([1]; 5 μmol/kg p.o. BID 12 days) [%]	% Efficacy at Reduced Dose, Acute ([1]; 5 μmol/kg p.o.) [%]	% Efficacy at Reduced Dose, Chronic (BID, 12 days) ([1]; 15 μmol/kg p.o. BID 12 days) [%]	% Efficacy at Reduced Dose, Acute ([1]; 15 μmol/kg p.o.) [%]	% Efficacy at Reduced Dose, Chronic (BID, 12 days) ([1]; 10 μmol/kg p.o. BID 12 days) [%]	% Efficacy at Reduced Dose, Acute ([1]; 10 μmol/kg p.o.) [%]
760	0.915 (≈ 2.31 µM)				C[C@@H]1CN(c2ncccc2Cl)CC=C1C(=O)Nc1ccc(C(F)(F)F)cc1 [B, (3S)-3′-chloro-3-methyl-N-[4-(trifluoromethyl)phenyl]-3,6-dihydro-2H-1,2′-bipyridine-4-carboxamide]	17	80	30	significantly increased						
	0.5 (≈ 1.29 µM)	86	150		Cc1nc(Nc2cccc3c2C[C@H](O)CC3)oc1-c1ccc(C(F)(F)F)cc1 [C, (2R)-8-({4-methyl-5-[4-(trifluoromethyl)phenyl]-1,3-oxazol-2-yl}amino)-1,2,3,4-tetrahydronaphthalen-2-ol]	14			significantly increased	38	15	83	22		
	1 (≈ 2.45 µM)			217	CCC1(CC)C[C@@H](NC(=O)Nc2cccc3cnc(C)cc23)c2cc(F)ccc2O1 [D, N-[(4R)-2,2-diethyl-6-fluoro-3,4-dihydro-2H-chromen-4-yl]-N′-(3-methylisoquinolin-5-yl)urea]	26			significantly increased					62	28

From US20100210682A1, “Repeated Dosing of TRPV1 Antagonists” (ABBOTT LABORATORIES, priority 2009, published 2010)
